T1: SN3-SN4-TSN (340-888) (Homo sapiens, UniProt Q7KZF4)
T1 construct: gene SND1; SN3-SN4-TSN domain fragment, residues 340-888; N-terminal GST tag cut with TEV protease; E. coli Rosetta 2 (DE3)
T1 sequence (Q7KZF4 340-888): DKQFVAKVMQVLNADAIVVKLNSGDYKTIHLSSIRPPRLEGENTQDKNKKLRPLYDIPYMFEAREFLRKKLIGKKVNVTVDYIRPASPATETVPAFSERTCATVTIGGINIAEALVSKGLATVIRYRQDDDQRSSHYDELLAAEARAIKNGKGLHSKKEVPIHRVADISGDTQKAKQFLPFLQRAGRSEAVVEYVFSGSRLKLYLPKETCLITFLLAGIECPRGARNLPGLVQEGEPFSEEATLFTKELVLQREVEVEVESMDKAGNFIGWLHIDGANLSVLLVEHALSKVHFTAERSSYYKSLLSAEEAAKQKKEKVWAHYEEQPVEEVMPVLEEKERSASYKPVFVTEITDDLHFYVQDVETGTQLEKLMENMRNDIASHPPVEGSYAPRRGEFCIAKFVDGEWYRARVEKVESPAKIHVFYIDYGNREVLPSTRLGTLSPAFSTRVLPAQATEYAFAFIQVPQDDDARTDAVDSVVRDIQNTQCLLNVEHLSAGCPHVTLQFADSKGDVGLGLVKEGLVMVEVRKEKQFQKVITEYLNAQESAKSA

T2: SN1-SN2 (16-339) (Homo sapiens, UniProt Q7KZF4)
T2 construct: gene SND1; SN1-SN2 domain fragment, residues 16-339; N-terminal GST tag cut with TEV protease; E. coli Rosetta 2 (DE3)
T2 sequence (Q7KZF4 16-339): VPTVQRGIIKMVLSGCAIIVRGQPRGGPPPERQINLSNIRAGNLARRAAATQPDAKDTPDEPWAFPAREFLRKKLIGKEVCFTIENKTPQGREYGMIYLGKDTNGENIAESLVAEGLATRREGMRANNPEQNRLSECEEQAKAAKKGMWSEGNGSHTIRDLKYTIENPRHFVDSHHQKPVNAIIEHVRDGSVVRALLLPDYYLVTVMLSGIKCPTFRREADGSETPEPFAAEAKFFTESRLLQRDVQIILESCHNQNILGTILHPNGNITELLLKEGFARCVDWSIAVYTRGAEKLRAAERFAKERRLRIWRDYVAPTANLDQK


How the values were obtained:
SN3-SN4-TSN (340-888) = molecular target: T1, SN3-SN4-TSN (340-888); test: isothermal titration calorimetry, one-site model; type: binding
From the text: isothermal titration calorimetry, one-site model on SN3-SN4-TSN (340-888)

SN1-SN2 (16-339) = molecular target: T2, SN1-SN2 (16-339); test: isothermal titration calorimetry, one-site model; type: binding
From the text: isothermal titration calorimetry, one-site model on SN1-SN2 (16-339)

SND1 full-length = SND1 full-length (UniProt Q7KZF4 1-910); test: fluorescence polarization; high affinity, Kd only in figure; inhibited by suramin, not by navitoclax; FP: 20 mM HEPES pH 7.5, 100 mM NaCl, 3 nM labelled RNA, 25 C; EMSA: same buffer with 5 mM EGTA or 5 mM CaCl2, room temperature 1 or 4 h, 20% PAGE 1xTBE 4 C; conditions: protein: recombinant; tags: GST tag removed by TEV; label: 5' 6-FAM; single strand
SND1 full-length, sequence (Q7KZF4 whole entry): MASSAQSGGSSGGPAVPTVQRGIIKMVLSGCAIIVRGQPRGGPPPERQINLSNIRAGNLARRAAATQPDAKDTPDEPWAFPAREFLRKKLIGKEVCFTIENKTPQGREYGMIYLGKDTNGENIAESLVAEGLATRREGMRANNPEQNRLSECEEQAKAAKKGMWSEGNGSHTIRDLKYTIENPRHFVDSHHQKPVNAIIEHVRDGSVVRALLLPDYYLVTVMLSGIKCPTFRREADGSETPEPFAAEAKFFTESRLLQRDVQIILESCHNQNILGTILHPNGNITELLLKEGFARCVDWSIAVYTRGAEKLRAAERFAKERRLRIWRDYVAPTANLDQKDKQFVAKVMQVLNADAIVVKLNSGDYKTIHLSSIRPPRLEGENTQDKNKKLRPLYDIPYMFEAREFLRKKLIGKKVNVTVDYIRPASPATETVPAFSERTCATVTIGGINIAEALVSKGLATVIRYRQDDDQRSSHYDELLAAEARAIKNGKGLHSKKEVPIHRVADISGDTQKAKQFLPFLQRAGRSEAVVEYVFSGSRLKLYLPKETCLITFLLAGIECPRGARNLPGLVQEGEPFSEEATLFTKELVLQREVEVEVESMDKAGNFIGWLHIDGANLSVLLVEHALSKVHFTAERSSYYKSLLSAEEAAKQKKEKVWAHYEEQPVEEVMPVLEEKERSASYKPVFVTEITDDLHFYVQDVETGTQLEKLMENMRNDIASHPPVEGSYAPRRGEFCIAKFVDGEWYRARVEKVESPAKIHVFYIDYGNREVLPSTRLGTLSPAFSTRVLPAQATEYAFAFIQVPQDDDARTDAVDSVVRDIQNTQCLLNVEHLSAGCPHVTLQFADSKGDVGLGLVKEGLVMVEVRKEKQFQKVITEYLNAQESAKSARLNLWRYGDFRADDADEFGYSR

Row | Molecule | Kd (SN3-SN4-TSN (340-888)) [µM] | Kd (SN1-SN2 (16-339)) [µM] | binding result (SND1 full-length)
1 | Cc1ccc(C(=O)Nc2ccc(S(=O)(=O)O)c3cc(S(=O)(=O)O)cc(S(=O)(=O)O)c23)cc1NC(=O)c1cccc(NC(=O)Nc2cccc(C(=O)Nc3cc(C(=O)Nc4ccc(S(=O)(=O)O)c5cc(S(=O)(=O)O)cc(S(=O)(=O)O)c45)ccc3C)c2)c1 [Suramin] | 5.59 | 12.1 | 
2 | UGGAAUGUAAAGAAGUAUGUAU (ssRNA) [miR-1-3p FP tracer] |  |  | binds

Reference: PMC9265050, “Inhibition of RNA Binding in SND1 Increases the Levels of miR-1-3p and Sensitizes Cancer Cells to Navitoclax” (Cancers, 2022)
